In patent publication US9115122B2, “Non-ATP dependent inhibitors of extracellular signal-regulated kinase (ERK)” (UNIVERSITY OF MARYLAND, BALTIMORE, priority 2012, dated 2015):

How the values were obtained:
Assay in all cases: Cell proliferation WST-1 assay, single dose (Example 4)
Format in all cases: cell-based
Details in all cases: 100 μM, 48 hours
[1] = tested on: Jurkat T-cell leukemia cells
Experimental: (§1) In addition, compounds were tested in RPMI-7951 cells, which also contain mutated BRaf and are resistant to BRaf inhibitors due to the overexpression of MAP3K8 (the gene encoding COT/Tp12) that provides an alternative mechanism to indirectly or directly activate ERK proteins. […] For comparison, HeLa cervical carcinoma and Jurkat T-cell leukemia cells, which are p53 defective cancer cell lines but contain no known activating mutations in the ERK pathway, were studied. […] Cell proliferation was evaluated by water soluble tetrazolium-1 (WST-1) assay as previously described. Briefly, cells (˜5000/well) were seeded in 96 well plates, allowed to recover for 16-20 hours, and then treated with the indicated test compound for 48 hours. After incubation, WST-1 reagent was added and absorbance was read at 450 nm with background subtraction taken at 650 nm. Values were normalized to the control (DMSO only treated) cells.

A375 melanoma cells = tested on: A375 melanoma cells
Experimental: as §1

RPMI-7951 melanoma cells = tested on: RPMI-7951 melanoma cells
Experimental: as §1

[2] = tested on: HeLa cervical carcinoma cells
Experimental: as §1

SK-MEL-28 melanoma cells = tested on: SK-MEL-28 melanoma cells
Experimental: as §1

HL-60 leukemic cells = tested on: HL-60 leukemic cells
Experimental: as §1

SMILES	Cell Viability (% of Vehicle) Jurkat [1]	Cell Viability (% of Vehicle) A375 (A375 melanoma cells)	Cell Viability (% of Vehicle) RPMI-7951 (RPMI-7951 melanoma cells)	Cell Viability (% of Vehicle) HeLa [2]	Cell Viability (% of Vehicle) SK-MEL-28 (SK-MEL-28 melanoma cells)	Cell Viability (% of Vehicle) HL-60 (HL-60 leukemic cells)
CCOc1ccc(/C=C2\SC(=O)N(C[C@H](N)C(=O)OC)C2=O)cc1 [Compound 22d, (S,Z)-methyl 2-amino-3-(5-(4-ethoxybenzylidene)-2,4-dioxothiazolidin-3-yl)propanoate]	100 ± 5 % of Vehicle	41 ± 11 % of Vehicle	1.8 ± 0.1 % of Vehicle	87 ± 4 % of Vehicle	33 ± 9 % of Vehicle	25 ± 5 % of Vehicle
CCOc1ccc(/C=C2\SC(=O)N(C(CN)CN)C2=O)cc1 [Compound 22e, (Z)-3-(1,3-diaminopropan-2-yl)-5-(4-ethoxybenzylidene)thiazolidine-2,4-dione]	81 ± 9 % of Vehicle	19 ± 4 % of Vehicle	25 ± 3 % of Vehicle	62 ± 2 % of Vehicle	32 ± 2 % of Vehicle	11 ± 4 % of Vehicle
CCOc1ccc(/C=C2\SC(=O)N(CCNC)C2=O)cc1 [Compound 23a, (Z)-5-(4-ethoxybenzylidene)-3-(2-(methylamino)ethyl)thiazolidine-2,4-dione]	83 ± 6 % of Vehicle	95 ± 2 % of Vehicle	54 ± 7 % of Vehicle	85 ± 4 % of Vehicle	91 ± 1 % of Vehicle	17 ± 11 % of Vehicle
CCNCCN1C(=O)S/C(=C\c2ccc(OCC)cc2)C1=O [Compound 23b, (Z)-5-(4-ethoxybenzylidene)-3-(2-(ethylamino)ethyl)thiazolidine-2,4-dione]	69 ± 10 % of Vehicle	51 ± 4 % of Vehicle	60 ± 4 % of Vehicle	81 ± 2 % of Vehicle	63 ± 10 % of Vehicle	14 ± 4 % of Vehicle
CCOc1ccc(/C=C2\SC(=O)N(CCNCC(C)C)C2=O)cc1 [Compound 23c, (Z)-5-(4-ethoxybenzylidene)-3-(2-(isobutylamino)ethyl)thiazolidine-2,4-dione]	2.5 ± 0.1 % of Vehicle	1.0 ± 0.1 % of Vehicle	1.0 ± 0.1 % of Vehicle	3.7 ± 0.4 % of Vehicle	1.3 ± 0.1 % of Vehicle	10 ± 4 % of Vehicle
CCOc1ccc(/C=C2\SC(=O)N(CCNCc3ccccc3)C2=O)cc1 [Compound 23d, (Z)-3-(2-(benzylamino)ethyl)-5-(4-ethoxybenzylidene)thiazolidine-2,4-dione]	89 ± 4 % of Vehicle	13 ± 1 % of Vehicle	2.5 ± 0.3 % of Vehicle	37 ± 1 % of Vehicle	25 ± 6 % of Vehicle	5.0 ± 2 % of Vehicle
CCOc1ccc(/C=C2\SC(=O)N(CCNCc3ccc(C#N)cc3)C2=O)cc1 [Compound 23e, (Z)-4-(((2-(5-(4-ethoxybenzylidene)-2,4-dioxothiazolidin-3-yl)ethyl)amino)methyl)benzonitrile]	98 ± 5 % of Vehicle	89 ± 3 % of Vehicle	96 ± 5 % of Vehicle	88 ± 2 % of Vehicle	96 ± 6 % of Vehicle	75 ± 25 % of Vehicle
CCOc1ccc(/C=C2\SC(=O)N(CCN(C)C)C2=O)cc1 [Compound 24a, (Z)-3-(2-(dimethylamino)ethyl)-5-(4-ethoxybenzylidene)thiazolidine-2,4-dione]	95 ± 1 % of Vehicle	115 ± 2 % of Vehicle	130 ± 4 % of Vehicle	90 ± 5 % of Vehicle	101 ± 0.3 % of Vehicle	110 ± 14 % of Vehicle
CCOc1ccc(/C=C2\SC(=O)N(CCN(Cc3ccccc3)Cc3ccccc3)C2=O)cc1 [Compound 24b, (Z)-3-(2-(dibenzylamino)ethyl)-5-(4-ethoxybenzylidene)thiazolidine-2,4-dione]	104 ± 2 % of Vehicle	122 ± 7 % of Vehicle	120 ± 3 % of Vehicle	92 ± 9 % of Vehicle	104 ± 4 % of Vehicle	109 ± 24 % of Vehicle
CCOc1ccc(/C=C2\SC(=O)N(CCN(Cc3ccc(C#N)cc3)Cc3cccc(C#N)c3)C2=O)cc1 [Compound 24c, (Z)-3-(((4-cyanobenzyl)(2-(5-(4-ethoxybenzylidene)-2,4-dioxothiazolidin-3-yl)ethyl)amino)methyl)benzonitrile]	100 ± 2 % of Vehicle	115 ± 1 % of Vehicle	108 ± 9 % of Vehicle	97 ± 8 % of Vehicle	107 ± 3 % of Vehicle	108 ± 16 % of Vehicle
CCOc1ccc(/C=C2\SC(=O)N(CCNC(C)=O)C2=O)cc1 [Compound 25a, (Z)—N-(2-(5-(4-ethoxybenzylidene)-2,4-dioxothiazolidin-3-yl)ethyl)acetamide]	105 ± 8 % of Vehicle	121 ± 4 % of Vehicle	124 ± 5 % of Vehicle	100 ± 11 % of Vehicle	105 ± 2 % of Vehicle	106 ± 23 % of Vehicle
CCOc1ccc(/C=C2\SC(=O)N(CCNC(=O)C(F)(F)F)C2=O)cc1 [Compound 25b, (Z)—N-(2-(5-(4-ethoxybenzylidene)-2,4-dioxothiazolidin-3-yl)ethyl)-2,2,2-trifluoroacetamide]	103 ± 6 % of Vehicle	118 ± 4 % of Vehicle	127 ± 3 % of Vehicle	98 ± 11 % of Vehicle	105 ± 2 % of Vehicle	101 ± 23 % of Vehicle
CCOc1ccc(/C=C2\SC(=O)N(CCNC(=O)OC(C)(C)C)C2=O)cc1 [Compound 25c, (Z)-tert-butyl (2-(5-(4-ethoxybenzylidene)-2,4-dioxothiazolidin-3-yl)ethyl)carbamate]	92 ± 7 % of Vehicle	84 ± 2 % of Vehicle	62 ± 7 % of Vehicle	81 ± 1 % of Vehicle	73 ± 1 % of Vehicle	31 ± 5 % of Vehicle
CCOc1ccc(/C=C2\SC(=O)N(CCNC(=O)c3ccc(C#N)cc3)C2=O)cc1 [Compound 25d, (Z)-4-cyano-N-(2-(5-(4-ethoxybenzylidene)-2,4-dioxothiazolidin-3-yl)ethyl)benzamide]	102 ± 7 % of Vehicle	118 ± 3 % of Vehicle	122 ± 10 % of Vehicle	99 ± 9 % of Vehicle	103 ± 2 % of Vehicle	101 ± 12 % of Vehicle
CCOc1ccc(/C=C2\SC(=O)N(CCNC(=O)OC)C2=O)cc1 [Compound 26a, (Z)-methyl (2-(5-(4-ethoxybenzylidene)-2,4-dioxothiazolidin-3-yl)ethyl)carbamate]	97 ± 7 % of Vehicle	96 ± 4 % of Vehicle	102 ± 4 % of Vehicle	84 ± 4 % of Vehicle	88 ± 3 % of Vehicle	104 ± 31 % of Vehicle
CCOc1ccc(/C=C2\SC(=O)N(CCNC(=O)OC(C)(C)C)C2=O)cc1 [Compound 26b, (Z)-tert-butyl (2-(5-(4-ethoxybenzylidene)-2,4-dioxothiazolidin-3-yl)ethyl)carbamate]	111 ± 9 % of Vehicle	88 ± 3 % of Vehicle	67 ± 4 % of Vehicle	88 ± 5 % of Vehicle	83 ± 5 % of Vehicle	95 ± 21 % of Vehicle
CCOc1ccc(/C=C2\SC(=O)N(CCNC(=O)OCC(C)C)C2=O)cc1 [Compound 26c, (Z)-isobutyl (2-(5-(4-ethoxybenzylidene)-2,4-dioxothiazolidin-3-yl)ethyl)carbamate]	110 ± 4 % of Vehicle	102 ± 4 % of Vehicle	75 ± 12 % of Vehicle	95 ± 3 % of Vehicle	94 ± 1 % of Vehicle	80 ± 28 % of Vehicle
